Assay results published in patent publication US12128035B2, “Activating pyruvate kinase R” (Novo Nordisk Health Care AG, priority 2021, dated 2024).

Tested on: 2,3-DPG blood levels
Assay: Phase 1 SAD/MAD: blood 2,3-DPG (LC-MS/MS) in healthy volunteers
Assay type: in vivo, human
Method: In this study, SAD/MAD cohorts are randomized (3 to 1) to receive Compound 1 or placebo (P). Compound 1 was evaluated first in 4 healthy SAD cohorts and 4 healthy MAD (14-day dosing period) cohorts. Based on the safety, and PK/PD profile from HS, Compound 1 is then evaluated in 1 SCD SAD cohort and 2 SCD MAD cohorts. Specifically, based on the safety and pharmacokinetic/pharmacodynamics (PK/PD) profile in healthy volunteer studies, Compound 1 is evaluated in patients (pts) with SCD, first in a single dose (SD or SAD) cohort and then in multiple-dose (MD or MAD) cohorts (14-day and 12-week). Safety assessments include AEs, vital signs, ECGs and laboratory parameters. PK/PD blood sampling was performed on Day 1 (SAD/MAD) and Day 14 (MAD) and up to 72 h after the last dose and at the end-of-study visit. PD parameters included 2,3-DPG, ATP, and p50 in all cohorts with additional PD studies (including oxygen scan) performed only in the SCD cohorts. PD parameters included 2,3-DPG, ATP, p50, RBC deformability with controlled deoxygenation and reoxygenation (Lorrca® oxygen scan) and varying osmolality (Lorrca® osmoscan)). To maintain study blind, pt identifiers were removed when needed.
In the SAD cohorts, the subjects' blood 2,3-DPG levels were measured periodically after dosing by a qualified LC-MS/MS method for the quantitation of 2,3-DPG in blood. Decreased 2,3-DPG blood levels were observed 6 hours following a single dose of Compound 1 at all dose levels (earlier timepoints were not collected). Maximum decreases in 2,3-DPG levels generally occurred ˜24 hours after the first dose with the reduction sustained ˜48-72 hr postdose. Table 15 reports the median percentage change in 2,3-DPG blood levels, relative to baseline, measured over time in healthy volunteers after a single dose of Compound 1 (200 mg, 400 mg, 700 mg, or 1000 mg) or placebo. Table 16 reports the mean percentage change in 2,3-DPG blood levels, relative to baseline, measured over time in healthy volunteers after a single dose of Compound 1 (200 mg, 400 mg, 700 mg, or 1000 mg). Accordingly, the median and mean reduction in the concentration of 2,3-DPG, relative to baseline, was at least about 30% at all dose levels tested 24 hours after administration of the single dose.
In the MAD cohorts, the subjects' blood 2,3-DPG levels were measured periodically after dosing by a qualified LC-MS/MS method for the quantitation of 2,3-DPG in blood. […] Table 18B reports the mean percentage change in 2,3-DPG blood levels, relative to baseline, measured over time after the first dose on days 1 and 14 in healthy volunteers who received daily doses of Compound 1 (100 mg BID, 200 mg BID, 300 mg BID, or 400 mg QD) for 14 days. Accordingly, the median and mean reduction in the concentration of 2,3-DPG, relative to baseline, was at least about 25% at all dose levels tested 24 hours after administration of the first dose on day 1 and at least about 40% at all dose levels tested 24 hours after administration of the first dose on day 14.
The following procedures are employed for the analysis of ATP and 2,3-DPG in human whole blood K2EDTA using a protein precipitation extraction procedure and analysis by LC-MS/MS.
The following procedures are used for sample extraction prior to analysis via LC-MS/MS. 15.0 μL of the calibration standards, quality controls, matrix blanks, and samples are aliquoted into a 96-well plate. 50.0 μL of the internal standard spiking solution is added to all samples on the plate, with the exception of the matrix blank samples; 50.0 μL of water is added to the matrix blank samples. Subsequently, 150 μL of water is added to all samples on the plate. The plate is then covered and agitated by vortex at high speed for ten minutes, after which 750 μL of methanol is added to all samples on the plate. The plate is covered and agitated by vortex for approximately 1 minute. The plate is then centrifuged at approximately 3500 RPM at approximately 4° C. for five minutes. […]

[1] = HV 400 mg QD, Day 14, 8 h after first daily dose
[2] = HV 400 mg QD, Day 14, 12 h after first daily dose
[3] = HV 400 mg QD, Day 14, 16 h after first daily dose
[4] = HV 400 mg QD, Day 14, 24 h after first daily dose
[5] = HV 400 mg QD, Day 14, 48 h after first daily dose
[6] = HV 400 mg QD, Day 14, 72 h after first daily dose
[7] = HV single 200 mg, 0 h after dose
[8] = HV single 200 mg, 6 h after dose
[9] = HV single 200 mg, 8 h after dose
[10] = HV single 200 mg, 12 h after dose
[11] = HV single 200 mg, 16 h after dose
[12] = HV single 200 mg, 24 h after dose
[13] = HV single 200 mg, 36 h after dose
[14] = HV single 200 mg, 48 h after dose
[15] = HV single 200 mg, 72 h after dose
[16] = HV single 400 mg, 0 h after dose
[17] = HV single 400 mg, 6 h after dose
[18] = HV single 400 mg, 8 h after dose
[19] = HV single 400 mg, 12 h after dose
[20] = HV single 400 mg, 16 h after dose
[21] = HV single 400 mg, 24 h after dose
[22] = HV single 400 mg, 36 h after dose

O=C([C@H](CO)c1ccccc1)N1CC2=C(C1)CN(S(=O)(=O)c1cnc3c(c1)OCCO3)C2 (single isomer, unassigned) [Compound 1]
Mean Percentage Change in 2,3-DPG Levels [1]: −55%
Median Percentage Change in 2,3-DPG Levels [1]: −56%
Mean Percentage Change in 2,3-DPG Levels [2]: −50%
Median Percentage Change in 2,3-DPG Levels [2]: −49%
Mean Percentage Change in 2,3-DPG Levels [3]: −51%
Median Percentage Change in 2,3-DPG Levels [3]: −52%
Mean Percentage Change in 2,3-DPG Levels [4]: −53%
Median Percentage Change in 2,3-DPG Levels [4]: −53%
Mean Percentage Change in 2,3-DPG Levels [5]: −38%
Median Percentage Change in 2,3-DPG Levels [5]: −40%
Mean Percentage Change in 2,3-DPG Levels [6]: −28%
Median Percentage Change in 2,3-DPG Levels [6]: −25%
maximum decrease in 2,3-DPG from baseline (median) (HV MAD cohorts, Day 14): 55%
Mean Maximum Percent Change from Baseline, 2,3-DPG (HV MAD, all doses and timepoints (N = 36)): −56.3%
2,3-DPG reduction sustained postdose (HV SAD cohorts): 48 to 72 h
Mean Maximum Percent Change from Baseline, 2,3-DPG (HV SAD, all doses and timepoints (N = 24)): −46.8%
Mean Percentage Change in 2,3-DPG Levels [7]: 0%
Median Percentage Change in 2,3-DPG Levels [7]: 0.0%
Mean Percentage Change in 2,3-DPG Levels [8]: −17%
Median Percentage Change in 2,3-DPG Levels [8]: −18%
Mean Percentage Change in 2,3-DPG Levels [9]: −21%
Median Percentage Change in 2,3-DPG Levels [9]: −17%
Mean Percentage Change in 2,3-DPG Levels [10]: −26%
Median Percentage Change in 2,3-DPG Levels [10]: −25%
Mean Percentage Change in 2,3-DPG Levels [11]: −28%
Median Percentage Change in 2,3-DPG Levels [11]: −33%
Mean Percentage Change in 2,3-DPG Levels [12]: −30%
Median Percentage Change in 2,3-DPG Levels [12]: −31%
Mean Percentage Change in 2,3-DPG Levels [13]: −31%
Median Percentage Change in 2,3-DPG Levels [13]: −33%
Mean Percentage Change in 2,3-DPG Levels [14]: −33%
Median Percentage Change in 2,3-DPG Levels [14]: −29%
Mean Percentage Change in 2,3-DPG Levels [15]: −14%
Median Percentage Change in 2,3-DPG Levels [15]: −18%
time of pharmacodynamic maximum (minimum of the 2,3-DPG concentration) (HV single 400 mg): ~24 h
Mean Percentage Change in 2,3-DPG Levels [16]: 0%
Median Percentage Change in 2,3-DPG Levels [16]: 0.0%
Mean Percentage Change in 2,3-DPG Levels [17]: −24%
Median Percentage Change in 2,3-DPG Levels [17]: −23%
Mean Percentage Change in 2,3-DPG Levels [18]: −29%
Median Percentage Change in 2,3-DPG Levels [18]: −29%
Mean Percentage Change in 2,3-DPG Levels [19]: −35%
Median Percentage Change in 2,3-DPG Levels [19]: −40%
Mean Percentage Change in 2,3-DPG Levels [20]: −38%
Median Percentage Change in 2,3-DPG Levels [20]: −35%
Mean Percentage Change in 2,3-DPG Levels [21]: −41%
Median Percentage Change in 2,3-DPG Levels [21]: −39%
Mean Percentage Change in 2,3-DPG Levels [22]: −37%
Median Percentage Change in 2,3-DPG Levels [22]: −38%
